Data: patent US6160166A, “Phosphonated agents and their antiangiogenic and antitumorigenic use” (priority 1999, dated 2000)
pIC50: −log10 of the molar value.

Tests used:
[1] = system: chick chorioallantoic membrane (CAM); experiment: Chick egg chorioallantoic membrane (CAM) assay, 6-day, growing vessels: inhibition of angiogenesis; assay type: in vivo; conditions: for antiangiogenic activity relative to suramin: CAM assay / inhibition of angiogenesis, versus suramin; for inhibition in vivo at 70 nmol: Gallus gallus, Tables 1 and 2, dose not given, Em = number of embryos, read-out: % Ih (Inhibition); for inhibition of angiogenesis in the 6-day CAM, in words: rapidly growing vessels
Source text: The purpose of this experiment was to test the ability of the phosphonic acid agents described above to inhibit angiogenesis. […]
(§1) Comparison of the inhibition of angiogenesis by 70 nmol of
(§2) suramin or a equimolar amount of a phosphonic acid agents in the
(§3) 6-day and 11-day chick egg chorioallantoic (CAM) assay.

[2] = system: human dermal microvascular and porcine pulmonary artery endothelial cells; experiment: bFGF-stimulated and non-stimulated endothelial cell growth (total protein, total DNA); assay type: cell-based; conditions: 25 μM
Source text: Suramin is a highly charged molecule with six sulfonate groups that are ionized at physiologic pH.

[3] = system: chick chorioallantoic membrane (CAM); experiment: Chick egg chorioallantoic membrane (CAM) assay, 11-day, established vessels; assay type: in vivo; conditions: for 11-day CAM % Inhibition: 70 nmol or equimolar amount; for inhibitory activity in the 11-day CAM, in words: established vessels
Protocol: According to Ausprunk et al. (1974), capillary angiogenesis in the CAM is completed by day 11. Measurements of intercapillary distances are also consistent with the cessation of capillary growth after day 10. […] The implants were prepared as previously described by Gagliardi et al. (1992), implanted on day 11 and read on day 13.
as §1, §2, §3

[4] = system: human dermal Microvascular endothelial cells; experiment: Inhibition of bFGF-stimulated growth of human microvascular endothelial cells; assay type: cell-based; conditions: for pIC50: Homo sapiens, Endothelial cell, bFGF-stimulated, estimated from dose response curve
Protocol: Inhibition of cell growth was evaluated by measuring total protein and total DNA and the IC50 was estimated for each dose response curve.

[5] = system: MMP-2; experiment: MMP-2 activity by zymography, human microvascular endothelial cells; assay type: cell-based; conditions: for inhibition of MMP-2 activity: human microvascular endothelial cells, zymography; for inhibition of bFGF-induced increase in MMP-2 activity: with bFGF
Source text: Matrix metalloproteinases are an important group of zinc enzymes responsible for the degradation of the extracellular matrix components, such as collagen and proteoglycans. Currently, 16 family members have been identified. MMP family member differ from each other structurally by the presence or absence of domains that contribute to activities such as substrate specificity, inhibitor binding, matrix binding and cell surface localization (Powell and Matrisian, 1996). To determine if the phosphonic acid agents were effective inhibitors of the MMP's of endothelial cells, cells were incubated in the presence of the different agents for 48 hours. Tissue samples were taken and subjected to zymography. Tissue samples were placed in glass homogenizers in a three fold weight/volume of lysis buffer consisting of 50 mM Tris-HCL, pH=7.4, with 200 mM sodium chloride and 0.1% Triton X-100. The samples were homogenized and centrifuged at 1500 g for 20 min. The supernatant was immediately analyzed by zymography. Protein content of each sample was determined by a modified Lowry method.
MMP enzyme activity was detected using polyacrylamide gel eltrophoresis zymography. SDS-polyacrylamide gel electrophoresis (PAGE) was performed using 8% acrylamide gels containing 0.1% gelatin. The volume of test samples loaded was 15 μl. Electrophoresis was run at 4° C. at a constant voltage (100 volts). After electrophoresis, gels were incubated in Triton X-100 (2.5%) for 30 minutes to eliminate SDS, prior to being incubated overnight in 50 mM Tris HCL, pH7.5, containing 10 mM CaCl2 at 37° C. The gels were stained in 0.25% (W/v) Coomassie Brilliant Blue and destained in methanol:acetic acid:water (50:40:10). The clear zones in these gels indicates the presence of proteins with gelatinolytic activity. This method allows for identification of pro-metalloproteinases.Migration position of proteins and with standard molecular weight and supernatant from HT 1080 cells that express MMP-2 and MMP-9 were used as controls.

[6] = cited from earlier work
[7] = system: different cancer cell lines; experiment: MTT cell proliferation, different cancer cell lines; assay type: cell-based, human; conditions: cancer cell lines in vitro

Row | SMILES | antiangiogenic activity relative to suramin [1] | effect on bFGF stimulation of endothelial cell growth [2] | effect on total protein content versus unstimulated control [2] | inhibition in vivo at 70 nmol [1] | further results
1 | O=C(Nc1ccc(P(=O)(O)O)cc1)c1cc(NC(=O)c2cccc([N+](=O)[O-])c2)cc(C(=O)Nc2ccc(P(=O)(O)O)cc2)c1 [NF 167] | 2 to 4 times | inhibited the stimulation of endothelial cell growth by bFGF | significantly reduced total protein content far below the unstimulated control endothelial cells |  | 
2 | O=C(Nc1ccc(OC(=O)P(=O)(O)O)cc1)Nc1ccc(OC(=O)P(=O)(O)O)cc1 [NF 392] |  |  |  | 6% | 
3 | O=C(Nc1ccc(C(=O)Nc2ccc(P(=O)(O)O)cc2)cc1)Nc1ccc(C(=O)Nc2ccc(P(=O)(O)O)cc2)cc1 [NF 681] | 4-8 times | inhibited the stimulation of endothelial cell growth by bFGF | significantly reduced total protein content far below the unstimulated control endothelial cells | 100% | inhibition of angiogenesis in the 6-day CAM, in words [1]: very potent inhibitors of angiogenesis; ID50, dose that produces 50% inhibition of angiogenesis ([1]; CAM assay): 2 nmol; 11-day CAM % Inhibition [3]: 0%; inhibitory activity in the 11-day CAM, in words [3]: no significant inhibitory activity; pIC50 [4]: 5.82; inhibition of MMP-2 activity [5]: potent inhibitors of MMP-2 activity; inhibition of bFGF-induced increase in MMP-2 activity [5]: inhibited the increase in MMP-2 activity induced by bFGF
4 | O=C(Nc1ccc(P(=O)(O)O)cc1)Nc1ccc(P(=O)(O)O)cc1 [NF 161] | 2 to 4 times | inhibited the stimulation of endothelial cell growth by bFGF | significantly reduced total protein content far below the unstimulated control endothelial cells | 53% | 
5 | CN1CCCC1=O [N-methyl-2-pyrrolidone] |  |  |  |  | toxicity in Ames type assays and chronic exposure studies ([6]; Wells et al.): have not revealed any significant toxicity; irritation or sensitization potential ([6]; animal and human experiments): very little irritation or sensitization potential
6 | O=C(Nc1cccc(C(=O)Nc2ccc(P(=O)(O)O)cc2)c1)Nc1cccc(C(=O)Nc2ccc(P(=O)(O)O)cc2)c1 [NF 067] | 2 to 4 times | inhibited the stimulation of endothelial cell growth by bFGF | significantly reduced total protein content far below the unstimulated control endothelial cells | 62% | inhibition of angiogenesis in the 6-day CAM, in words [1]: very potent inhibitors of angiogenesis; ID50, dose that produces 50% inhibition of angiogenesis ([1]; CAM assay): 32 nmol; 11-day CAM % Inhibition [3]: 0%; inhibitory activity in the 11-day CAM, in words [3]: no significant inhibitory activity; pIC50 [4]: 4.71; potency relative to suramin, inhibition of endothelial cell growth ([4]; versus suramin, in vitro): 20 times; antiproliferative activity, in words [7]: very low antiproliferative activity
7 | O=C(Nc1cccc(OC(=O)P(=O)(O)O)c1)Nc1cccc(OC(=O)P(=O)(O)O)c1 [NF 426] |  |  |  | 39% | 
8 | O=C(Nc1cccc(C(=O)Nc2cccc(C(=O)Nc3cccc(P(=O)(O)O)c3)c2)c1)Nc1cccc(C(=O)Nc2cccc(C(=O)Nc3cccc(P(=O)(O)O)c3)c2)c1 [NF 050] | 2 to 4 times | inhibited the stimulation of endothelial cell growth by bFGF | significantly reduced total protein content far below the unstimulated control endothelial cells |  | inhibition of MMP-2 activity [5]: potent inhibitors of MMP-2 activity; inhibition of bFGF-induced increase in MMP-2 activity [5]: inhibited the increase in MMP-2 activity induced by bFGF
9 | O=C(Nc1ccc(NC(=O)P(=O)(O)O)cc1)Nc1ccc(NC(=O)P(=O)(O)O)cc1 [NF 428] | 2 to 4 times | inhibited the stimulation of endothelial cell growth by bFGF | significantly reduced total protein content far below the unstimulated control endothelial cells |  | 
10 | O=C(Nc1cccc(C(=O)Nc2cccc(P(=O)(O)O)c2)c1)Nc1cccc(C(=O)Nc2cccc(P(=O)(O)O)c2)c1 [NF 068] |  |  |  | 0% | antiangiogenic activity relative to suramin or between groups, in words ([1]; CAM assay): does not show any antiangiogenic activity
11 | O=C(Nc1ccc(C(=O)Nc2cccc(P(=O)(O)O)c2)cc1)Nc1ccc(C(=O)Nc2cccc(P(=O)(O)O)c2)cc1 [NF 069] | 4-8 times | inhibited the stimulation of endothelial cell growth by bFGF | significantly reduced total protein content far below the unstimulated control endothelial cells | 66% | inhibition of angiogenesis in the 6-day CAM, in words [1]: very potent inhibitors of angiogenesis; ID50, dose that produces 50% inhibition of angiogenesis ([1]; CAM assay): 9 nmol; 11-day CAM % Inhibition [3]: 0%; inhibitory activity in the 11-day CAM, in words [3]: no significant inhibitory activity; pIC50 [4]: 4.12
12 | O=C(Nc1ccccc1OC(=O)P(=O)(O)O)Nc1ccccc1OC(=O)P(=O)(O)O [NF 473] |  |  |  | 21% | 
13 | O=C(Nc1cccc(P(=O)(O)O)c1)Nc1cccc(P(=O)(O)O)c1 [NF 158] |  |  |  | 0% | 
14 | Cc1cc(NC(=O)Nc2ccc(OC(=O)P(=O)(O)O)c(C)c2)ccc1OC(=O)P(=O)(O)O [NF 474] |  |  |  | 12% | 
15 | O=C(Nc1ccc(P(=O)(O)O)cc1)c1ccc(NC(=S)Nc2ccc(C(=O)Nc3ccc(P(=O)(O)O)cc3)cc2)cc1 [NF 162] |  |  |  |  | inhibition of MMP-2 activity [5]: potent inhibitors of MMP-2 activity; inhibition of bFGF-induced increase in MMP-2 activity [5]: inhibited the increase in MMP-2 activity induced by bFGF
